# Reference: patent US9464077B2, “Nitrogen-containing aromatic heterocyclic compound” (Astellas Pharma Inc., priority 2012, dated 2016)
# Key:
# human recombinant FGFR1 = human recombinant FGFR1 (Homo sapiens, UniProt P11362); assay: FGFR1 enzyme assay (LabChip EZ Reader)
# Description: (§1) The compound was diluted with a solution of dimethyl sulfoxide (DMSO) (10-fold common ratio, 4 portions) before dilution with a reaction buffer (100 mM HEPES (pH7.5), 0.003% Brij-35, 0.004% Tween 20, 0.5 mM DTT, and 10 mM MgCl2) so that the final DMSO concentration was 2%. To 4 μL of the compound solution in a 384-well plate, 2 μL each of FGFR1 enzyme (2 or 3 ng/μL), FGFR2 enzyme (2 ng/μL), or FGFR3 enzyme (6 ng/μL) which were diluted with the reaction buffer was added. […] After the reaction was stopped, the reaction mixture was measured with a LabChip EZ Reader. The IC50 values were calculated by non-linear regression based on the inhibition rates obtained.
# FGFR3_S249C/NIH3T3 cells = assay: Growth assay of cells with forced expression of mutant FGFR3; assay type: cell-based; details: Mus musculus, NIH3T3, 120 h; 5 days after addition, CellTiter-Glo; read-out: IC50 (growth inhibition)
# Description: FGFR3_S249C/NIH3T3 cells were added to a 96-well spheroid plate (U bottom) at a concentration of 3000 cells/well/90 μL, and the compound solution (10 μL) was added thereto on the next day (final DMSO concentration: 0.1%). The compound solution was prepared by serially diluting the compound with DMSO at a 3-fold common ratio (9 portions and DMSO only) from the maximum concentration of 10 mM and then diluted 100-fold with a culture medium (D-MEM, 10% FBS). 5 days after the addition of the compound, the growth inhibition caused by the compound was evaluated by Promega (G7573) CellTiter-Glo™ Luminescent Cell Viability Assay.
# human recombinant FGFR3 = human recombinant FGFR3 (Homo sapiens, UniProt P22607); assay: FGFR3 enzyme assay (LabChip EZ Reader)
# Description: as §1
# [1] = test system: UM-UC-14 (FGFR3_S249C-positive cells, bladder cancer); assay: Antitumor test on UM-UC-14 subcutaneous xenograft; assay type: in vivo, nude mice; details: oral, once a day; for inhibition in vivo at 1 mg/kg/day / Antitumor Activity, % regression: 1 mg/kg/day; for Antitumor Activity, % regression: tumor volume at Day 11 vs Day 1
# Description: 3×10^6 UM-UC-14 cells per 0.1 mL (PBS+matrigel, 1:1) were inoculated subcutaneously into the right flank of nude mice (CAnN, Cg-Foxn1nu/CrlCrlj (nu/nu), male, 4- to 5-week-old), and when their tumor size reached about 250 mm^3, drug administration was started (Day 1). The drug was administered once a day and the tumor size was measured with a caliper and the body weight was also measured every two or three days. The antitumor effect was finally determined based on the tumor volume (mm^3; minor axis (mm)×minor axis (mm)×major axis (mm)/2) at Day 11 (n=3-5). To the control group, 0.5% MC (methyl cellulose) was administered. […] “% regression” indicates what percentage of regression could be achieved compared with the tumor volume at Day 1. Here, the tumor volume at Day 1 means tumor volume immediately before drug administration.
# [2] = test system: bladder cancer patient-derived cell line RT4; assay: Anchorage-independent cell growth inhibition, spheroid plate; assay type: cell-based; details: Homo sapiens, 96 h, 4 days, read-out: growth inhibition rate RT4; for inhibition at 0.001 µM: 1 nM; for inhibition at 0.01 µM: 10 nM; for inhibition at 0.1 µM: 100 nM
# [3] = test system: bladder cancer patient-derived cell line RT-112; assay: as above; assay type: cell-based; details: Homo sapiens, RT-112, 96 h, 4 days, read-out: growth inhibition rate RT-112
# human recombinant FGFR2 = human recombinant FGFR2 (Homo sapiens, UniProt P21802); assay: FGFR2 enzyme assay (LabChip EZ Reader)
# Description: as §1
# [4] = test system: FGFR3-TACC3_v1 (N-FLAG) fusion polypeptide; assay: In vitro kinase activity inhibition (HTRF KinEASE-TK); assay type: biochemical, human; details: 100 μM ATP
# [5] = test system: FGFR3-TACC3_v4-expressing NIH3T3 cells; assay: Anchorage-independent cell growth inhibition, spheroid plate; assay type: cell-based; details: Mus musculus, NIH3T3, 96 h, 4 days, read-out: growth inhibition rate v4; for inhibition at 0.001 µM: 1 nM; for inhibition at 0.01 µM: 10 nM; for inhibition at 0.1 µM: 100 nM
# From the text: Measurement for anchorage-independent cell growth (colony method, etc.) is known to be a system for investigating the anticancer action (pharmacological effect) of compounds (Clinical Oncology, second edition, Cancer and Chemotherapy Publishers Inc.). As a method for measuring the non-adhesive growth of cells, there is the following method using a spheroid plate as referred to above in place of the colony method.
# In a 96-well spheroid plate (Sumilon Celltight Spheroid 96U; Sumitomo Bakelite), FGFR3-TACC3_v1-expressing NIH3T3 cells, FGFR3-TACC3_v2-expressing NIH3T3 cells, FGFR3-TACC3_v3-expressing NIH3T3 cells, and FGFR3-TACC3_v4-expressing NIH3T3 cells were each seeded at 1×10^3 cells per well in D-MEM media (Invitrogen) containing 10% fetal bovine serum. […] A well supplemented with only medium was also prepared for a positive control. Culturing was performed overnight in the presence of 5% CO2 at 37° C. followed by addition of test compounds (final concentrations: 100 nM, 10 nM, and 1 nM). As a negative control, DMSO used as a solvent for the compounds was added at the same concentration (0.1%) as in the case of addition of the compounds. Then, culturing was performed in the presence of 5% CO2 at 37° C. for 4 days, and a cell counting reagent (CellTiter-Glo™ Luminescent Cell Viability Assay; Promega) was added and the resulting mixture was stirred for 20 minutes followed by measurement with a luminometer.
# [6] = test system: FGFR3-BAIAP2L1-expressing NIH3T3 cells; assay: as above; assay type: cell-based; details: Mus musculus, NIH3T3, 96 h, 4 days, read-out: growth inhibition rate FGFR3-BAIAP2L1-expressing NIH3T3 Cells; for inhibition at 0.001 µM: 1 nM; for inhibition at 0.01 µM: 10 nM; for inhibition at 0.1 µM: 100 nM
# Description: In a 96-well spheroid plate (Sumilon Celltight Spheroid 96U; Sumitomo Bakelite), FGFR3-BAIAP2L1-expressing NIH3T3 cells were seeded at 1×10^3 cells per well in D-MEM medium containing 10% fetal bovine serum. A well supplemented with only medium was also prepared for a positive control. Culturing was performed overnight in the presence of 5% CO2 at 37° C. followed by addition of test compounds (final concentrations: 100 nM, 10 nM, and 1 nM). As a negative control, DMSO used as a solvent for the compounds was added at the same concentration (0.1%) as in the case of addition of the compounds. Then, culturing was performed in the presence of 5% CO2 at 37° C. for 4 days, and a cell counting reagent (CellTiter-Glo™ Luminescent Cell Viability Assay; Promega) was added and the resulting mixture was stirred for 20 minutes followed by measurement with a luminometer.
# [7] = test system: FGFR3-TACC3_v2 (N-FLAG) fusion polypeptide; assay: In vitro kinase activity inhibition (HTRF KinEASE-TK); assay type: biochemical, human; details: 100 μM ATP
# [8] = test system: FGFR3-TACC3_v3 (N-FLAG) fusion polypeptide; assay: as above; assay type: biochemical, human; details: 100 μM ATP
# [9] = Mus musculus, UMUC14, 264 h, tumor volume at Day 11
# Sequence of human recombinant FGFR3 (P22607 23-806): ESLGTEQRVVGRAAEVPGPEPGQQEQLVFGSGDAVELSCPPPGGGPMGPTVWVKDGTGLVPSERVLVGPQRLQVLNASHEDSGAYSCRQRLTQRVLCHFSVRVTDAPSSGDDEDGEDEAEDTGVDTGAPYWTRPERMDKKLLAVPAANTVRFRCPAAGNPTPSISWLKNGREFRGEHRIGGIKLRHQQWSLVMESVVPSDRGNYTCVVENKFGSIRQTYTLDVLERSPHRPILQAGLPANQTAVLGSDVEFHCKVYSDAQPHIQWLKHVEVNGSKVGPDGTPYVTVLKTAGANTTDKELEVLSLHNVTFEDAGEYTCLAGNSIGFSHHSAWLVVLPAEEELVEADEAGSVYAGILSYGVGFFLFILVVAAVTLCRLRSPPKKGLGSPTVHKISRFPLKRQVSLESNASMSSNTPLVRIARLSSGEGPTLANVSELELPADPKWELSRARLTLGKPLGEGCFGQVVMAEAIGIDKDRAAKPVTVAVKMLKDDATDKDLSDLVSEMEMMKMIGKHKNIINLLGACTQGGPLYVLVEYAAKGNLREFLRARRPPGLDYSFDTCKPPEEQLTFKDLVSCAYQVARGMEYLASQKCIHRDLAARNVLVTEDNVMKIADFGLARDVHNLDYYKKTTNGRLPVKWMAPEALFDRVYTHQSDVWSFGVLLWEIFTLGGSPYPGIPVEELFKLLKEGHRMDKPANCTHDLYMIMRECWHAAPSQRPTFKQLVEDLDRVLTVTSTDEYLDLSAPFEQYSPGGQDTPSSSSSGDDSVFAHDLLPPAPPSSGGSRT
# Sequence of human recombinant FGFR2 (P21802 22-821): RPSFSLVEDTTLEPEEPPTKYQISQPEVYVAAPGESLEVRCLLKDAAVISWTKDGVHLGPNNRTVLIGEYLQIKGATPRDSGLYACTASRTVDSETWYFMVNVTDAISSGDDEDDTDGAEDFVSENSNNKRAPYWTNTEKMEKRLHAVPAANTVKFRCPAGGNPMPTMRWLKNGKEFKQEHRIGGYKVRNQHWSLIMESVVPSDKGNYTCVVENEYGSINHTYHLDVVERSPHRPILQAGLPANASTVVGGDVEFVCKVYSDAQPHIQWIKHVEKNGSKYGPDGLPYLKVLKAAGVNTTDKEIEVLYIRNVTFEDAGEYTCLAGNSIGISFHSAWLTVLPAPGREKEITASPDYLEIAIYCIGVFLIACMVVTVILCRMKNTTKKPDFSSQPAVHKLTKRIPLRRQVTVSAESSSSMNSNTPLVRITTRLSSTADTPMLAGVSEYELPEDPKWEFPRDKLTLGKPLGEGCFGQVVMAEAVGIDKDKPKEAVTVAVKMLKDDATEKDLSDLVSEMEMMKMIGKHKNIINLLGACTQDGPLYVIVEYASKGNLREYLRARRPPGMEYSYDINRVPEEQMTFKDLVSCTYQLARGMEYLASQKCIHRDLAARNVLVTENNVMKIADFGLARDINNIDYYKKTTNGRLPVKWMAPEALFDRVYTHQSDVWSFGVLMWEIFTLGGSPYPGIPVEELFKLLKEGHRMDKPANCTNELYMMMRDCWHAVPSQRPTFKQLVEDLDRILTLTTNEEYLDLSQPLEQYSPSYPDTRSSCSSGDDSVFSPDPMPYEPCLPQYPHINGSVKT
# Sequence of human recombinant FGFR1 (P11362 22-822): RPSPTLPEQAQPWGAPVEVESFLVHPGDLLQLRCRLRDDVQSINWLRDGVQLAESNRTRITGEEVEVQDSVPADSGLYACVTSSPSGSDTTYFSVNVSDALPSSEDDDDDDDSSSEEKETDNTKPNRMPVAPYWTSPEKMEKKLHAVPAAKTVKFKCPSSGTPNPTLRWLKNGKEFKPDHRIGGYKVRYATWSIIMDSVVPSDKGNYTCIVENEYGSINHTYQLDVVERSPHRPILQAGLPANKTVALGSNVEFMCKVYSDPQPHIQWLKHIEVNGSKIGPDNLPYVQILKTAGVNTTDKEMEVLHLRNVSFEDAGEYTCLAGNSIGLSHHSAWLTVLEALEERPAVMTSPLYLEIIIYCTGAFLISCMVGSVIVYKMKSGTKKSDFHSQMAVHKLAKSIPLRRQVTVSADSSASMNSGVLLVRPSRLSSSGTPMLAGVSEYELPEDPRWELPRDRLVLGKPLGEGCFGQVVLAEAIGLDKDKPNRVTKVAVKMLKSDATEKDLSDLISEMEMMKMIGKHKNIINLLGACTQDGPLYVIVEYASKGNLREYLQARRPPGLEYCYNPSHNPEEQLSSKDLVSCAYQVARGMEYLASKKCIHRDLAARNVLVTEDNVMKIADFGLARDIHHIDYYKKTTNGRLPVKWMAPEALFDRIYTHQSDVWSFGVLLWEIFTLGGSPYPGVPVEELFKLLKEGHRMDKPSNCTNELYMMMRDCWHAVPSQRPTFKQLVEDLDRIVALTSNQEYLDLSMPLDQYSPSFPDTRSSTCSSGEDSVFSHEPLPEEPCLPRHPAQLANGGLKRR
compound,measurement,setting,value
COc1cc(Nc2ncc(CCc3c(F)c(OC)cc(OC)c3F)cn2)ccc1N1CCN(C)CC1 [Ex 7],IC50,human recombinant FGFR1,2 nM
COc1cc(OC)c(F)c(COc2cnc(Nc3cnn(C[C@H](O)CO)c3)nc2)c1F [Ex 11],IC50,FGFR3_S249C/NIH3T3 cells,13 nM
same,IC50,human recombinant FGFR1,1 nM
same,IC50,human recombinant FGFR3,2 nM
COc1cc(OC)c(F)c(CCc2cnc(Nc3ccc(N4CCC(N5CCN(C)CC5)CC4)c(F)c3)nc2)c1F [Example 33],inhibition in vivo at 1 mg/kg/day,[1]; [9],70%
same,IC50,FGFR3_S249C/NIH3T3 cells,26 nM
same,IC50,human recombinant FGFR1,2 nM
same,IC50,human recombinant FGFR3,2 nM
COc1cc(Nc2ncc(OCc3c(F)c(OC)cc(OC)c3F)cn2)ccc1N1CCC(N2CCN(C)CC2)CC1 [Example 56],inhibition at 0.001 µM,[2],5%
same,inhibition at 0.01 µM,[2],42%
same,inhibition at 0.1 µM,[2],64%
same,inhibition at 0.001 µM,[3]; 1 nM,29%
same,inhibition at 0.01 µM,[3]; 10 nM,83%
same,inhibition at 0.1 µM,[3]; 100 nM,90%
same,IC50,human recombinant FGFR2,2 nM
same,IC50,human recombinant FGFR1,2 nM
COc1cc(Nc2ncc(OCc3c(F)c(OC)cc(OC)c3F)cn2)ccc1N1CCN(C)CC1 [Example 57],IC50,human recombinant FGFR1,1 nM
COc1cc(OC)c(Cl)c(COc2cnc(Nc3cnn(C4CCN(C)CC4)c3)nc2)c1Cl [Example 71],inhibition in vivo at 1 mg/kg/day,[1]; [9],50%
same,IC50,FGFR3_S249C/NIH3T3 cells,10 nM
same,IC50,human recombinant FGFR1,2 nM
same,IC50,human recombinant FGFR3,2 nM
COc1cc(OC)c(Cl)c(COc2cnc(Nc3cnn(C4CCNCC4)c3)nc2)c1Cl [Example 72],inhibition in vivo at 1 mg/kg/day,[1]; [9],30%
same,IC50,FGFR3_S249C/NIH3T3 cells,24 nM
same,IC50,human recombinant FGFR2,2 nM
same,IC50,human recombinant FGFR3,2 nM
COc1cc(Nc2ncc(OCc3c(F)c(OC)cc(OC)c3F)cn2)ccc1N1CCN(C2CCN(C)CC2)CC1 [Example 84],"Antitumor Activity, % regression",[1],34%
same,IC50,FGFR3_S249C/NIH3T3 cells,16 nM
same,IC50,human recombinant FGFR2,2 nM
same,IC50,human recombinant FGFR1,2 nM
same,IC50,human recombinant FGFR3,1 nM
COc1cc(Nc2ncc(OCc3c(F)c(OC)cc(OC)c3F)cn2)ccc1N1C[C@@H](C)N[C@@H](C)C1 [Example 92],inhibition in vivo at 1 mg/kg/day,[1]; [9],49%
same,IC50,FGFR3_S249C/NIH3T3 cells,7 nM
same,IC50,human recombinant FGFR2,2 nM
same,IC50,human recombinant FGFR3,1 nM
COc1cc(Nc2ncc(OCc3c(F)c(OC)cc(OC)c3F)cn2)ccc1N1CCC2(CCNCC2)CC1 [Example 95],inhibition in vivo at 3 mg/kg/day,"[1]; Mus musculus, UMUC14, 264 h, 3 mg/kg/day, tumor volume at Day 11",97%
same,IC50,FGFR3_S249C/NIH3T3 cells,57 nM
same,IC50,human recombinant FGFR3,2 nM
COc1cc(OC)c(F)c(COc2cnc(Nc3cnn(CCN4CCN(C)CC4)c3)nc2)c1F [Example 114],"Antitumor Activity, % regression",[1],33%
same,IC50,FGFR3_S249C/NIH3T3 cells,7 nM
same,IC50,human recombinant FGFR1,2 nM
same,IC50,human recombinant FGFR3,1 nM
COc1cc(OC)c(F)c(COc2cnc(Nc3cnn(CC(=O)N4CC(O)C4)c3)nc2)c1F [Example 115],inhibition in vivo at 1 mg/kg/day,[1]; [9],70%
same,IC50,FGFR3_S249C/NIH3T3 cells,36 nM
same,IC50,human recombinant FGFR1,2 nM
same,IC50,human recombinant FGFR3,2 nM
COc1cc(OC)c(F)c(COc2cnc(Nc3cnn(C[C@@H](O)CO)c3)nc2)c1F [Example 116],inhibition at 0.001 µM,[2],8%
same,inhibition at 0.01 µM,[2],39%
same,inhibition at 0.1 µM,[2],63%
same,"Antitumor Activity, % regression",[1],54%
same,rate of inhibiting kinase activity v1,[4]; 10 nM,79%
same,rate of inhibiting kinase activity v1,[4]; 100 nM,95%
same,inhibition at 0.001 µM,[5],11%
same,inhibition at 0.01 µM,[5],70%
same,IC50,FGFR3_S249C/NIH3T3 cells,8 nM
same,inhibition at 0.001 µM,[6],15%
same,inhibition at 0.01 µM,[6],74%
same,IC50,human recombinant FGFR1,1 nM
same,IC50,human recombinant FGFR3,2 nM
same,rate of inhibiting kinase activity v2,[7]; 1 nM,22%
same,rate of inhibiting kinase activity v2,[7]; 10 nM,73%
same,rate of inhibiting kinase activity v2,[7]; 100 nM,95%
same,rate of inhibiting kinase activity v3,[8]; 1 nM,41%
same,rate of inhibiting kinase activity v3,[8]; 100 nM,96%
COc1cc(OC)c(F)c(COc2cnc(Nc3ccc(N4CCN(C)CC4)cc3)nc2)c1F [Example 122],inhibition at 0.001 µM,[2],6%
same,inhibition at 0.01 µM,[2],43%
same,inhibition at 0.1 µM,[2],63%
same,"Antitumor Activity, % regression",[1],15%
same,rate of inhibiting kinase activity v1,[4]; 1 nM,34%
same,rate of inhibiting kinase activity v1,[4]; 10 nM,80%
same,rate of inhibiting kinase activity v1,[4]; 100 nM,94%
same,inhibition at 0.001 µM,[5],19%
same,inhibition at 0.01 µM,[5],82%
same,inhibition at 0.1 µM,[5],89%
same,IC50,FGFR3_S249C/NIH3T3 cells,7 nM
same,IC50,human recombinant FGFR2,2 nM
same,inhibition at 0.001 µM,[6],17%
same,inhibition at 0.01 µM,[6],83%
same,inhibition at 0.1 µM,[6],90%
same,IC50,human recombinant FGFR3,2 nM
same,rate of inhibiting kinase activity v2,[7]; 1 nM,27%
same,rate of inhibiting kinase activity v2,[7]; 10 nM,80%
same,rate of inhibiting kinase activity v2,[7]; 100 nM,95%
same,rate of inhibiting kinase activity v3,[8]; 1 nM,45%
same,rate of inhibiting kinase activity v3,[8]; 10 nM,85%
same,rate of inhibiting kinase activity v3,[8]; 100 nM,97%
COc1cc(OC)c(F)c(COc2cnc(Nc3cc(CN4CCN(C)CC4)n(C)n3)nc2)c1F [Example 248],inhibition at 0.001 µM,[2],3%
same,inhibition at 0.01 µM,[2],10%
same,inhibition at 0.1 µM,[2],43%
same,inhibition in vivo at 1 mg/kg/day,[1]; [9],95%
same,rate of inhibiting kinase activity v1,[4]; 1 nM,7%
same,rate of inhibiting kinase activity v1,[4]; 10 nM,40%
same,rate of inhibiting kinase activity v1,[4]; 100 nM,86%
same,inhibition at 0.001 µM,[5],-5%
same,inhibition at 0.01 µM,[5],26%
same,inhibition at 0.1 µM,[5],83%
same,IC50,FGFR3_S249C/NIH3T3 cells,50 nM
same,inhibition at 0.001 µM,[6],-3%
same,inhibition at 0.01 µM,[6],19%
same,inhibition at 0.1 µM,[6],82%
same,IC50,human recombinant FGFR1,4 nM
same,IC50,human recombinant FGFR3,5 nM
same,rate of inhibiting kinase activity v2,[7]; 1 nM,6%
same,rate of inhibiting kinase activity v2,[7]; 10 nM,25%
same,rate of inhibiting kinase activity v2,[7]; 100 nM,78%
same,rate of inhibiting kinase activity v3,[8]; 1 nM,30%
same,rate of inhibiting kinase activity v3,[8]; 10 nM,55%
same,rate of inhibiting kinase activity v3,[8]; 100 nM,91%
